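Test compounds were applied to cells in 96-well plates for 48 hours at 5 doses. GI50 = concentration required for 50% inhibition of growth.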 Calls of active or inactive are those of the source. Cut-off read from the data, not from the text of the source: active = GI50 up to about 1.1 µM and inactive = higher.
Experiments:
Assay in all cases: inhibition of tumour cell growth, NCI panel, 48 h
[1] = system: MDA-N
[2] = system: TK-10
[3] = system: EKVX
[4] = system: COLO 205
[5] = system: MDA-MB-435
[6] = system: OVCAR-8
[7] = system: SNB-19
[8] = system: K562
[9] = system: SK-MEL-2
[10] = system: HT-29
[11] = system: Malme-3M
[12] = system: U-251
[13] = system: RPMI-8226
[14] = system: HOP-92
[15] = system: OVCAR-5
[16] = system: SK-MEL-28
[17] = system: SW-620
[18] = system: HCC 2998
[19] = system: NCI-H460
[20] = system: NCI-H23

For `Cc1nc(-c2cc3ccccc3oc2=O)cs1`, the GI50 [1] was > 100 µM (inactive), the GI50 [2] was 37.4 µM (inactive) and the GI50 [3] was 34.2 µM (inactive). The GI50 [4] was > 100 µM (inactive), the GI50 [5] was > 100 µM (inactive) and the GI50 [6] was 47 µM (inactive). The GI50 [7] was 40.6 µM (inactive), the GI50 [8] was > 100 µM (inactive) and the GI50 [9] was 85.3 µM (inactive). For the same compound, the GI50 [10] was > 100 µM (inactive), the GI50 [11] was 7.23 µM (inactive) and the GI50 [12] was 32 µM (inactive). For the same compound, the GI50 [13] was > 100 µM (inactive), the GI50 [14] was 19 µM (inactive) and the GI50 [15] was > 100 µM (inactive). For the same compound, the GI50 [16] was > 100 µM (inactive), the GI50 [17] was > 100 µM (inactive) and the GI50 [18] was > 100 µM (inactive). The GI50 [19] was > 100 µM (inactive).

For `CCC(=O)O[C@H]1CC[C@H]2[C@@H]3CCC4=C/C(=N/OC(=O)c5cccc6c(=O)c7ccccc7[nH]c56)CC[C@]4(C)[C@H]3CC[C@]12C`, the GI50 [1] was 35 µM (inactive), the GI50 [2] was 54.6 µM (inactive) and the GI50 [3] was 8.53 µM (inactive). The GI50 [4] was 32.3 µM (inactive), the GI50 [5] was 27.6 µM (inactive) and the GI50 [6] was 29.9 µM (inactive). For the same compound, the GI50 [7] was 51.4 µM (inactive), the GI50 [8] was 18 µM (inactive) and the GI50 [9] was 31.6 µM (inactive). The GI50 [10] was 27.3 µM (inactive), the GI50 [12] was 25.6 µM (inactive) and the GI50 [13] was 19.9 µM (inactive). The GI50 [14] was 30.8 µM (inactive), the GI50 [15] was 33.7 µM (inactive) and the GI50 [16] was 28.7 µM (inactive). For the same compound, the GI50 [20] was 51.3 µM (inactive), the GI50 [17] was 32 µM (inactive) and the GI50 [18] was 21.3 µM (inactive). For the same compound, the GI50 [19] was 22.2 µM (inactive).

In the case of `COCc1nc2c(OC)c(-c3nc4ccc(N5CCN(C)CC5)nc4[nH]3)cc(OC)c2n1C`, the GI50 [1] is reported as 37.7 µM (inactive), the GI50 [3] is reported as 21 µM (inactive) and the GI50 [4] is reported as 8.59 µM (inactive). For the same compound, the GI50 [5] was 20.4 µM (inactive), the GI50 [6] was 33.9 µM (inactive) and the GI50 [7] was 35.4 µM (inactive). The GI50 [8] was 29.3 µM (inactive), the GI50 [9] was 22 µM (inactive) and the GI50 [10] was 19.9 µM (inactive). For the same compound, the GI50 [11] was 19.4 µM (inactive), the GI50 [12] was 21.7 µM (inactive) and the GI50 [13] was 18.7 µM (inactive). The GI50 [14] was > 100 µM (inactive), the GI50 [15] was 44.2 µM (inactive) and the GI50 [16] was 23.4 µM (inactive). For the same compound, the GI50 [20] was 58.3 µM (inactive), the GI50 [17] was 28.6 µM (inactive) and the GI50 [18] was 14.4 µM (inactive). The GI50 [19] was 26.4 µM (inactive).

With `Cc1cn(C2CC(N=[N+]=[N-])C(COP(=O)(O)OCC3OC(n4cc(F)c(=O)[nH]c4=O)CC3O)O2)c(=O)[nH]c1=O` (centres undefined) the GI50 [1] was 38.3 µM (inactive), the GI50 [2] was > 100 µM (inactive) and the GI50 [3] was 6.46 µM (inactive). For the same compound, the GI50 [4] was > 100 µM (inactive), the GI50 [5] was 16 µM (inactive) and the GI50 [6] was 5.94 µM (inactive). For the same compound, the GI50 [7] was > 31.6 µM (inactive), the GI50 [9] was > 100 µM (inactive) and the GI50 [10] was > 100 µM (inactive). For the same compound, the GI50 [12] was > 25.5 µM (inactive), the GI50 [13] was 0.311 µM (active) and the GI50 [14] was 1.11 µM (active). For the same compound, the GI50 [15] was > 100 µM (inactive), the GI50 [16] was > 77.4 µM (inactive) and the GI50 [20] was 4.05 µM (inactive). For the same compound, the GI50 [17] was 4.56 µM (inactive), the GI50 [18] was > 100 µM (inactive) and the GI50 [19] was 0.0292 µM (active).

For `O=C1OC(C2OC(=O)c3cc(O)c(O)c(O)c3-c3c(O)c(O)c4oc(=O)c5c(c(O)c(O)c6oc(=O)c3c4c65)-c3c(cc(O)c(O)c3O)C(=O)OCC2O)C2OC(=O)c3c(c(O)c(O)c(O)c3[C@H]2O)-c2c1cc(O)c(O)c2O` (some centres undefined), the GI50 [1] was 21.2 µM (inactive), the GI50 [3] was 13 µM (inactive) and the GI50 [4] was 14.8 µM (inactive). The GI50 [5] was 14 µM (inactive), the GI50 [6] was 20.2 µM (inactive) and the GI50 [7] was 96.8 µM (inactive). The GI50 [8] was 19.2 µM (inactive), the GI50 [9] was 31.6 µM (inactive) and the GI50 [10] was 13.3 µM (inactive). The GI50 [11] was 31.6 µM (inactive), the GI50 [12] was 20.9 µM (inactive) and the GI50 [13] was 28.5 µM (inactive). The GI50 [14] was 18.3 µM (inactive), the GI50 [15] was 19.7 µM (inactive) and the GI50 [16] was 98.2 µM (inactive). For the same compound, the GI50 [20] was 16.6 µM (inactive), the GI50 [17] was 19 µM (inactive) and the GI50 [18] was 43.6 µM (inactive). The GI50 [19] was 24.9 µM (inactive).
